In PubChem BioAssay AID1963978 (Molecular Pharmacology Branch, DTP, NCI, 2024):
Several values for one entry are separate records, joined by “and”; a condition that tells them apart may be missing. Equal values may be shown once.

System: 616215-338-R-J1-PDC spheroids with HUVEC/MSC, viability
Test: Anticancer human tumor 616215-338-R-J1-PDC patient-derived colon adenocarcinoma cell line growth inhibition [PI3K]
Conditions: for viability, T/C: stronger effect = lower value
Description: Combinatorial screen of targeted agents with the PI3K inhibitors inavolisib, alpelisib, duvelisib, and copanlisib in multi-cell type tumor spheroids
A high-throughput screen of multi-cell type tumor spheroids was designed to identify active combinations of targeted small molecules and PI3K pathway inhibitors. Complex spheroids include a stromal component modeled by human endothelial cells (HUVEC) and fibroblasts modeled by human mesenchymal stem cells (MSCs). The concentration ranges selected for each drug and investigational agent were based upon clinically achievable concentrations if the clinical Cmax of the agent was known.
Compounds. The drugs and investigational agents: inavolisib (NSC800729), alpelisib (NSC765974), duvelisib (NSC772469), copanlisib (NSC816437), ipatasertib (NSC767898), afuresertib (NSC778305), talazoparib (NSC767125), sapanisertib (NSC764658), selumetinib (NSC741078), tovorafenib (DAY101, NSC766906), vemurafenib (NSC761431), ravoxertinib (NSC781343), sotorasib (NSC818433), MRTX1133 (NSC 836407), abemaciclib (NSC 768073), palbociclib (NSC758247), venetoclax (NSC 766270), SY5609 (NSC837396), enzalutamide (NSC755605), and darolutamide (NSC825331), were obtained from the National Cancer Institute (NCI) Developmental Therapeutics Program Chemical Repository. The FDA-approved anticancer drug set is available from the NCI Developmental Therapeutics Program. […] The stock solutions were prepared in dimethyl sulfoxide (DMSO, Sigma-Aldrich, St. Louis, MO, cat. D2650) at 800-fold the tested concentration and stored at -70 degrees C prior to their use. All drugs and investigational agents were tested over a range starting from a high concentration at or near the clinical Cmax and decreasing in half-log increments. If the clinical Cmax for an agent had not been determined, the highest concentration tested was 10 microM.
Cell Culture. All cells were maintained in an incubator at 37 degrees C and 5% CO2 with 95% humidity. The PDC lines were cultured according to standard operating procedures established by the NCI PDMR (https://pdmr.cancer.gov/sops/default.htm). All PDCs were thawed and cultured in Matrigel-coated flasks prepared with a working solution of 1X Ham's F-12 nutrient mix, without supplementation (Invitrogen, Waltham, MA, cat. 11765054), 100 U/mL penicillin-streptomycin (Invitrogen, cat. 15140122), and 2.5% Matrigel (Corning Inc., Corning, NY, cat. 354248) for the first three passages. The 354836-022-R-J1-PDC, 475296-252-R-J1-PDC, and 997726-040-R-J2-PDC lines were cultured in 6A media, which includes advanced DMEM/F-12 (Thermo Fisher Scientific, cat. 12634028), 10 mM HEPES (Thermo Fisher Scientific, cat. 15630080), 1X GlutaMAX supplement (Thermo Fisher Scientific, cat. 35050061), 0.1 mg/mL primocin (InvivoGen, San Diego, CA, cat. ant-pm-2), 10% defined fetal bovine serum, heat inactivated (HyClone Laboratories Inc., Logan, UT, cat. SH30070.03HI), 50% L-WRN conditioned media (ATCC, cat. CRL-3276), 1.25 mM N-Acetyl-L-cysteine (Sigma-Aldrich, cat. A9165), 10 mM nicotinamide (Sigma-Aldrich, cat. N0636), 1X B-27 supplement (Thermo Fisher Scientific, cat. 17504044), 1X N-2 supplement (Thermo Fisher Scientific, cat. 17502048), and 10 microM Y-27632 dihydrochloride (Tocris Bioscience, Bristol, United Kingdom, cat. 1254). The 624824-186-R-J2-PDC line was cultured in 6C/Colon 1B media, which includes all 6A media components plus 50 ng/mL human EGF recombinant protein (Thermo Fisher Scientific, cat. PHG0311). […]

[1] = curve of first compound, second compound 0.0316 µM
[2] = curve of first compound, second compound 0.1 µM
[3] = curve of first compound, second compound 0.316 µM
[4] = curve of first compound, second compound 1 µM
[5] = second compound 0.0316 µM, first compound 0.0316 µM
[6] = second compound 0.0316 µM, first compound 0.1 µM
[7] = second compound 0.1 µM, first compound 0.0316 µM
[8] = second compound 0.1 µM, first compound 0.1 µM
[9] = second compound 0.316 µM, first compound 0.0316 µM
[10] = second compound 0.316 µM, first compound 0.1 µM
[11] = second compound 1 µM, first compound 0.0316 µM
[12] = second compound 1 µM, first compound 0.1 µM
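Also: spheroids exposed to agents for seven days before the viability read.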

## C#Cc1c(F)ccc2cc(O)cc(-c3ncc4c(N5CC6CCC(C5)N6)nc(OCC56CCCN5CC(F)C6)nc4c3F)c12 (configuration not stated)
Compound 0.0316 µM
  viability, T/C: 97.3% [middle of 4 runs]
Compound 0.1 µM
  viability, T/C: 96.7% [middle of 4 runs]
Compound 0.316 µM
  viability, T/C: 105% [middle of 4 runs]
Compound 1 µM
  viability, T/C: 96.1% [middle of 4 runs]
Compound 3.16 µM
  viability, T/C: 95% [middle of 4 runs]
Compound 10 µM
  viability, T/C: 83% [middle of 4 runs]
Curve of compound
  IC50: > 10 µM

## CC(C)NCC(C(=O)N1CCN(c2ncnc3c2C(C)CC3O)CC1)c1ccc(Cl)cc1 (configuration not stated) + CC(Nc1ncnc2nc[nH]c12)c1cc2cccc(Cl)c2c(=O)n1-c1ccccc1
[1]
  IC50: 4.16 µM
[2]
  IC50: 3.77 µM
[3]
  IC50: 4.74 µM
[4]
  IC50: 5.08 µM
Curve of first compound, second compound 3.16 µM
  IC50: 4.13 µM
Curve of first compound, second compound 10 µM
  IC50: 3.54 µM
[5]
  viability, T/C: 91.7%
[6]
  viability, T/C: 93.4%
Second compound 0.0316 µM, first compound 0.316 µM
  viability, T/C: 94.4%
Second compound 0.0316 µM, first compound 1 µM
  viability, T/C: 87.2%
Second compound 0.0316 µM, first compound 3.16 µM
  viability, T/C: 57.9%
Second compound 0.0316 µM, first compound 10 µM
  viability, T/C: 24.9%
[7]
  viability, T/C: 103%
[8]
  viability, T/C: 86.7%
Second compound 0.1 µM, first compound 0.316 µM
  viability, T/C: 91%
Second compound 0.1 µM, first compound 1 µM
  viability, T/C: 94.2%
Second compound 0.1 µM, first compound 3.16 µM
  viability, T/C: 54.8%
Second compound 0.1 µM, first compound 10 µM
  viability, T/C: 23.5%
[9]
  viability, T/C: 90.5%
[10]
  viability, T/C: 95%
Second compound 0.316 µM, first compound 0.316 µM
  viability, T/C: 83.7%
Second compound 0.316 µM, first compound 1 µM
  viability, T/C: 94%
Second compound 0.316 µM, first compound 3.16 µM
  viability, T/C: 65.2%
Second compound 0.316 µM, first compound 10 µM
  viability, T/C: 21.9%
[11]
  viability, T/C: 90.3%
[12]
  viability, T/C: 90.8%
Second compound 1 µM, first compound 0.316 µM
  viability, T/C: 101%
Second compound 1 µM, first compound 1 µM
  viability, T/C: 109%
Second compound 1 µM, first compound 3.16 µM
  viability, T/C: 67.2%
Second compound 1 µM, first compound 10 µM
  viability, T/C: 25.4%
Second compound 3.16 µM, first compound 0.0316 µM
  viability, T/C: 89.2%
Second compound 3.16 µM, first compound 0.1 µM
  viability, T/C: 101%
Second compound 3.16 µM, first compound 0.316 µM
  viability, T/C: 99.8%
Second compound 3.16 µM, first compound 1 µM
  viability, T/C: 79.9%
Second compound 3.16 µM, first compound 3.16 µM
  viability, T/C: 58.4%
Second compound 3.16 µM, first compound 10 µM
  viability, T/C: 26.2%
Second compound 10 µM, first compound 0.0316 µM
  viability, T/C: 105%
Second compound 10 µM, first compound 0.1 µM
  viability, T/C: 104%
Second compound 10 µM, first compound 0.316 µM
  viability, T/C: 100%
Second compound 10 µM, first compound 1 µM
  viability, T/C: 91.7%
Second compound 10 µM, first compound 3.16 µM
  viability, T/C: 52.2%
Second compound 10 µM, first compound 10 µM
  viability, T/C: 27.8%

## Cn1ncnc1[C@H]1c2n[nH]c(=O)c3cc(F)cc(c23)N[C@@H]1c1ccc(F)cc1 + CC(Nc1ccc2c(c1)OCCn1cc(N3C(=O)OCC3C(F)F)nc1-2)C(N)=O
Curve of first compound, second compound 0.00316 µM
  IC50: > 0.1 µM
Curve of first compound, second compound 0.01 µM
  IC50: > 0.1 µM
[1]
  IC50: > 0.1 µM
[2]
  IC50: > 0.1 µM
[3]
  IC50: > 0.1 µM
[4]
  IC50: > 0.1 µM
Second compound 0.00316 µM, first compound 0.000316 µM
  viability, T/C: 100%
Second compound 0.00316 µM, first compound 0.001 µM
  viability, T/C: 90.8%
Second compound 0.00316 µM, first compound 0.00316 µM
  viability, T/C: 98.3%
Second compound 0.00316 µM, first compound 0.01 µM
  viability, T/C: 103%
Second compound 0.00316 µM, first compound 0.0316 µM
  viability, T/C: 88.8%
Second compound 0.00316 µM, first compound 0.1 µM
  viability, T/C: 98.4%
Second compound 0.01 µM, first compound 0.000316 µM
  viability, T/C: 85.9%
Second compound 0.01 µM, first compound 0.001 µM
  viability, T/C: 90.6%
Second compound 0.01 µM, first compound 0.00316 µM
  viability, T/C: 91.8%
Second compound 0.01 µM, first compound 0.01 µM
  viability, T/C: 84%
Second compound 0.01 µM, first compound 0.0316 µM
  viability, T/C: 101%
Second compound 0.01 µM, first compound 0.1 µM
  viability, T/C: 90.5%
Second compound 0.0316 µM, first compound 0.000316 µM
  viability, T/C: 102%
Second compound 0.0316 µM, first compound 0.001 µM
  viability, T/C: 92.7%
Second compound 0.0316 µM, first compound 0.00316 µM
  viability, T/C: 89.8%
Second compound 0.0316 µM, first compound 0.01 µM
  viability, T/C: 97.6%
[5]
  viability, T/C: 98.5%
[6]
  viability, T/C: 93.2%
Second compound 0.1 µM, first compound 0.000316 µM
  viability, T/C: 97.1%
Second compound 0.1 µM, first compound 0.001 µM
  viability, T/C: 92.4%
Second compound 0.1 µM, first compound 0.00316 µM
  viability, T/C: 104%
Second compound 0.1 µM, first compound 0.01 µM
  viability, T/C: 103%
[7]
  viability, T/C: 94.8%
[8]
  viability, T/C: 88.9%
Second compound 0.316 µM, first compound 0.000316 µM
  viability, T/C: 112%
Second compound 0.316 µM, first compound 0.001 µM
  viability, T/C: 90.6%
Second compound 0.316 µM, first compound 0.00316 µM
  viability, T/C: 93.5%
Second compound 0.316 µM, first compound 0.01 µM
  viability, T/C: 99.4%
[9]
  viability, T/C: 90%
[10]
  viability, T/C: 88.7%
Second compound 1 µM, first compound 0.000316 µM
  viability, T/C: 96.2%
Second compound 1 µM, first compound 0.001 µM
  viability, T/C: 99.3%
Second compound 1 µM, first compound 0.00316 µM
  viability, T/C: 116%
Second compound 1 µM, first compound 0.01 µM
  viability, T/C: 89.6%
[11]
  viability, T/C: 87.7%
[12]
  viability, T/C: 76.2%

## CC(Cn1ccc(-c2ccc(C#N)c(Cl)c2)n1)NC(=O)c1cc(C(C)O)[nH]n1 (configuration not stated)
Compound 0.0316 µM
  viability, T/C: 99.3% [middle of 4 runs]
Compound 0.316 µM
  viability, T/C: 97.2% [middle of 4 runs]
Compound 1 µM
  viability, T/C: 101% [middle of 4 runs]
Compound 10 µM
  viability, T/C: 101% [middle of 4 runs]
Curve of compound
  IC50: > 10 µM

## CCCS(=O)(=O)Nc1ccc(F)c(C(=O)c2c[nH]c3ncc(-c4ccc(Cl)cc4)cc23)c1F
Compound 0.0316 µM
  viability, T/C: 95.5% [middle of 4 runs]
Compound 0.1 µM
  viability, T/C: 93.5% [middle of 4 runs]
Compound 0.316 µM
  viability, T/C: 97.2% [middle of 4 runs]
Compound 1 µM
  viability, T/C: 92.5% [middle of 4 runs]
Compound 10 µM
  viability, T/C: 2.66% [middle of 4 runs]
Curve of compound
  IC50: 4.34 µM and 3.87 µM and 5.17 µM
